In the supplement of paper PMC10307832:

How the values were obtained:
Experiment in all cases: relative viability (nuclei count vs DMSO), 5 days (fraction); higher = more cells survive
BEN = system: BEN
Procedure, shortened: (§1)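 Relative viability divides the nuclei count in treated wells by that in vehicle wells. Lung cancer cell lines were seeded in 1536-well plates, dosed by pin tool the next day, and fixed and stained after 5 days in one step with final 0.05% Triton X-100, 1% formaldehyde and 1 ug/ml Hoechst. Dosing was a single drug or a fixed anchor-drug dose plus five library-drug doses (not always all listed) in √10 steps, and values are medians of duplicate plates imaged at 4×.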

CAL-12T = system: CAL-12T
Procedure, shortened: as §1

H3255 = system: H3255
Procedure, shortened: as §1

HARA = system: HARA
Procedure, shortened: as §1

HCC-15 = system: HCC-15
Procedure, shortened: as §1

HCC-366 = system: HCC-366
Procedure, shortened: as §1

LC-2-ad = system: LC-2-ad
Procedure, shortened: as §1

LOU-NH91 = system: LOU-NH91
Procedure, shortened: as §1

LXF-289 = system: LXF-289
Procedure, shortened: as §1

NCI-H1395 = system: NCI-H1395
Procedure, shortened: as §1

NCI-H1651 = system: NCI-H1651
Procedure, shortened: as §1

NCI-H1793 = system: NCI-H1793
Procedure, shortened: as §1

NCI-H1915 = system: NCI-H1915
Procedure, shortened: as §1

NCI-H2085 = system: NCI-H2085
Procedure, shortened: as §1

NCI-H2170 = system: NCI-H2170
Procedure, shortened: as §1

NCI-H2347 = system: NCI-H2347
Procedure, shortened: as §1

NCI-H322M = system: NCI-H322M
Procedure, shortened: as §1

NCI-H441 = system: NCI-H441
Procedure, shortened: as §1

NCI-H522 = system: NCI-H522
Procedure, shortened: as §1

NCI-H647 = system: NCI-H647
Procedure, shortened: as §1

NCI-H650 = system: NCI-H650
Procedure, shortened: as §1

NCI-H661 = system: NCI-H661
Procedure, shortened: as §1

NCI-H838 = system: NCI-H838
Procedure, shortened: as §1

SK-MES-1 = system: SK-MES-1
Procedure, shortened: as §1

UMC-11 = system: UMC-11
Procedure, shortened: as §1

## Nc1cccc2c1CN(C1CCC(=O)NC1=O)C2=O (stereo not given) [Lenalidomide] + Cc1nc(Nc2ncc(C(=O)Nc3c(C)cccc3Cl)s2)cc(N2CCN(CCO)CC2)n1 [Dasatinib] (partner 0.075 µM)
BEN; first compound 0.253 µM
  relative viability: 0.385
BEN; first compound 0.8 µM
  relative viability: 0.258
BEN; first compound 2.53 µM
  relative viability: 0.293
BEN; first compound 8 µM
  relative viability: 0.241
CAL-12T; first compound 0.253 µM
  relative viability: 0.262
CAL-12T; first compound 0.8 µM
  relative viability: 0.345
CAL-12T; first compound 2.53 µM
  relative viability: 0.397
CAL-12T; first compound 8 µM
  relative viability: 0.368
H3255; first compound 0.253 µM
  relative viability: 0.365
H3255; first compound 0.8 µM
  relative viability: 0.32
H3255; first compound 2.53 µM
  relative viability: 0.34
H3255; first compound 8 µM
  relative viability: 0.301
HARA; first compound 0.253 µM
  relative viability: 0.3
HARA; first compound 2.53 µM
  relative viability: 0.293
HARA; first compound 8 µM
  relative viability: 0.287
HCC-15; first compound 0.253 µM
  relative viability: 0.629
HCC-15; first compound 0.8 µM
  relative viability: 0.526
HCC-15; first compound 2.53 µM
  relative viability: 0.816
HCC-15; first compound 8 µM
  relative viability: 0.527
HCC-366; first compound 0.253 µM
  relative viability: 0.661
HCC-366; first compound 0.8 µM
  relative viability: 0.622
HCC-366; first compound 2.53 µM
  relative viability: 0.752
HCC-366; first compound 8 µM
  relative viability: 0.334
LC-2-ad; first compound 0.253 µM
  relative viability: 0.49
LC-2-ad; first compound 2.53 µM
  relative viability: 0.727
LC-2-ad; first compound 8 µM
  relative viability: 0.395
LOU-NH91; first compound 0.253 µM
  relative viability: 0.558
LOU-NH91; first compound 0.8 µM
  relative viability: 0.435
LOU-NH91; first compound 2.53 µM
  relative viability: 0.555
LOU-NH91; first compound 8 µM
  relative viability: 0.456
LXF-289; first compound 0.253 µM
  relative viability: 0.235
LXF-289; first compound 0.8 µM
  relative viability: 0.347
LXF-289; first compound 2.53 µM
  relative viability: 0.234
LXF-289; first compound 8 µM
  relative viability: 0.213
NCI-H1395; first compound 0.253 µM
  relative viability: 0.428
NCI-H1395; first compound 0.8 µM
  relative viability: 0.383
NCI-H1395; first compound 2.53 µM
  relative viability: 0.392
NCI-H1395; first compound 8 µM
  relative viability: 0.367
NCI-H1651; first compound 0.253 µM
  relative viability: 0.386
NCI-H1651; first compound 0.8 µM
  relative viability: 0.419
NCI-H1651; first compound 2.53 µM
  relative viability: 0.617
NCI-H1651; first compound 8 µM
  relative viability: 0.375
NCI-H1793; first compound 0.253 µM
  relative viability: 0.349
NCI-H1793; first compound 2.53 µM
  relative viability: 0.412
NCI-H1793; first compound 8 µM
  relative viability: 0.212
NCI-H1915; first compound 0.253 µM
  relative viability: 0.321
NCI-H1915; first compound 0.8 µM
  relative viability: 0.329
NCI-H1915; first compound 2.53 µM
  relative viability: 0.301
NCI-H1915; first compound 8 µM
  relative viability: 0.245
NCI-H2085; first compound 0.253 µM
  relative viability: 0.253
NCI-H2085; first compound 0.8 µM
  relative viability: 0.259
NCI-H2085; first compound 2.53 µM
  relative viability: 0.243
NCI-H2085; first compound 8 µM
  relative viability: 0.214
NCI-H2170; first compound 0.253 µM
  relative viability: 0.547
NCI-H2170; first compound 0.8 µM
  relative viability: 0.47
NCI-H2170; first compound 2.53 µM
  relative viability: 0.571
NCI-H2170; first compound 8 µM
  relative viability: 0.454
NCI-H2347; first compound 0.253 µM
  relative viability: 0.264
NCI-H2347; first compound 0.8 µM
  relative viability: 0.365
NCI-H2347; first compound 2.53 µM
  relative viability: 0.286
NCI-H2347; first compound 8 µM
  relative viability: 0.214
NCI-H322M; first compound 0.253 µM
  relative viability: 0.262
NCI-H322M; first compound 0.8 µM
  relative viability: 0.279
NCI-H322M; first compound 2.53 µM
  relative viability: 0.254
NCI-H322M; first compound 8 µM
  relative viability: 0.253
NCI-H441; first compound 0.253 µM
  relative viability: 0.67
NCI-H441; first compound 0.8 µM
  relative viability: 0.518
NCI-H441; first compound 2.53 µM
  relative viability: 0.648
NCI-H441; first compound 8 µM
  relative viability: 0.493
NCI-H522; first compound 0.253 µM
  relative viability: 1
NCI-H522; first compound 2.53 µM
  relative viability: 0.749
NCI-H522; first compound 8 µM
  relative viability: 0.678
NCI-H647; first compound 0.253 µM
  relative viability: 0.14
NCI-H647; first compound 0.8 µM
  relative viability: 0.176
NCI-H647; first compound 2.53 µM
  relative viability: 0.319
NCI-H647; first compound 8 µM
  relative viability: 0.129
NCI-H650; first compound 0.253 µM
  relative viability: 0.459
NCI-H650; first compound 2.53 µM
  relative viability: 0.474
NCI-H650; first compound 8 µM
  relative viability: 0.355
NCI-H661; first compound 0.253 µM
  relative viability: 0.934
NCI-H661; first compound 0.8 µM
  relative viability: 0.854
NCI-H661; first compound 2.53 µM
  relative viability: 0.918
NCI-H661; first compound 8 µM
  relative viability: 0.86
NCI-H838; first compound 0.253 µM
  relative viability: 0.368
NCI-H838; first compound 0.8 µM
  relative viability: 0.301
NCI-H838; first compound 2.53 µM
  relative viability: 0.302
NCI-H838; first compound 8 µM
  relative viability: 0.252
SK-MES-1; first compound 0.253 µM
  relative viability: 0.421
SK-MES-1; first compound 0.8 µM
  relative viability: 0.422
SK-MES-1; first compound 2.53 µM
  relative viability: 0.499
SK-MES-1; first compound 8 µM
  relative viability: 0.413
UMC-11; first compound 0.253 µM
  relative viability: 0.452
UMC-11; first compound 0.8 µM
  relative viability: 0.456
UMC-11; first compound 2.53 µM
  relative viability: 0.542
UMC-11; first compound 8 µM
  relative viability: 0.43
